Target: T1, human recombinant PDE10A2 (Homo sapiens, UniProt Q9Y233)
T1 construct: These compounds were tested against recombinant human full-length isoenzyme PDE10A; purchased Calbiochem 524739
Experiment: Radiometric phosphodiesterase inhibition assay (SPA, [3H]cAMP)
Format: biochemical
Settings: fixed compound concentration of 10 µM; read-out: percentage of inhibition of PDE10A
Description: The methodology used for measuring human recombinant PDE10A2 activity was based in a Scintillation Proximity Assay (SPA) from Perkin Elmer (TRKQ7090).
After the incubation time, 50 µL of a solution of SPA-beads (approximately 1 mg per well) were added to each well and the plate was shaken for 1 h at room temperature. Finally, beads were settled for 30 min and radioactivity was detected in a Microbeta Trilux reader (Perkin Elmer, Shelton, CT, USA).
IC50 values were calculated by non-linear regression fitting using the GraphPad Prism. Data (radioactivity vs. log concentration) was fitted to a sigmoidal dose-response equation: Y = Bottom + (Top-Bottom)/(1 + 10^[…]), where Bottom and Top were the minimum and maximal inhibition for PDE, respectively, IC50 was the concentration of the compound that inhibited the PDE activity in a 50%, and n was the slope of the concentration-response curve.

T1 sequence (Q9Y233 267-1055): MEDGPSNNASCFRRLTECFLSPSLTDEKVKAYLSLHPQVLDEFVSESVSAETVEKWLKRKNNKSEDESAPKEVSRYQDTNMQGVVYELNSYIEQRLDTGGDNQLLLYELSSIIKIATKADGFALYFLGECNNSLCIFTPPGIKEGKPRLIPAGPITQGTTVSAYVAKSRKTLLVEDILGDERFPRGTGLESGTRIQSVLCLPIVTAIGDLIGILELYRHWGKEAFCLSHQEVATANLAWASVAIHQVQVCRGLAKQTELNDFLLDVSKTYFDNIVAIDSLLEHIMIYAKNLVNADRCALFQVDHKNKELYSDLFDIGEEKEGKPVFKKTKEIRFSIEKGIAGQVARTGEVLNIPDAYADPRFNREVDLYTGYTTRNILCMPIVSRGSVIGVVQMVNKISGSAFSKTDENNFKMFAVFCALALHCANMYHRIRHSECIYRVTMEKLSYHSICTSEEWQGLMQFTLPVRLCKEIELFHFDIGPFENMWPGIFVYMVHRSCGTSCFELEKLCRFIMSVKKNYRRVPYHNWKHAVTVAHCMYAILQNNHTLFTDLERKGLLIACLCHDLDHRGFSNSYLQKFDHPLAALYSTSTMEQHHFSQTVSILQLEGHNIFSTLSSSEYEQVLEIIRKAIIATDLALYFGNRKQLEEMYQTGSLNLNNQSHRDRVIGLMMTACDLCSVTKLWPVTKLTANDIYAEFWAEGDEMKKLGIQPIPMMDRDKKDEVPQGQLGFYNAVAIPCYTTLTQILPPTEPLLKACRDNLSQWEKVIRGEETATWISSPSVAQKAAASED

With `O=C(O)COC(=O)CNC(=O)c1ccccc1` [Compound 3] as the compound, how does the inhibition at 10 µM read?
The inhibition at 10 µM was 7%.

Which inhibition at 10 µM does the source give for `O=C(Cc1ccccc1)Sc1ncnc2[nH]cnc12` [Compound 2] here?
The inhibition at 10 µM was 40%.

Which inhibition at 10 µM does the source give for `Cc1ccc(-n2nc(C(C)(C)C)cc2N)cc1` [Compound 9] here?
Its inhibition at 10 µM is 3%.

For `O=S1(=O)N=C(O)c2cc(-c3ccccc3)sc2N1` [Compound 12], which inhibition at 10 µM is on record?
Its inhibition at 10 µM is 3%.

For `O=Cc1nc(-c2ccc(Cl)cc2)ns1` [Compound 13], which inhibition at 10 µM is on record?
The inhibition at 10 µM was 15%.

For `CC(=O)NNC(=O)c1c(O)n(C)c2ccccc2c1=O` [Compound 10], which inhibition at 10 µM is on record?
The inhibition at 10 µM was 2%.

With `CC(=O)C1=C(c2c(C)[nH]c3ccccc23)C(=O)NC1=O` [Compound 14] as the compound, how does the inhibition at 10 µM read?
The inhibition at 10 µM was 24%.

Which inhibition at 10 µM does the source give for `O=C(Cc1cccc(Cl)c1)Nc1nc2ccccc2s1` [Compound 11] here?
The inhibition at 10 µM was 44%.

Same assay, conditions: recombinant human full-length PDE10A

For `COc1ccc(-c2n/c(=N/Cc3cccnc3)sn2-c2ccccc2)cc1` [Compound 5], which IC50 is on record?
The IC50 was 1.8 µM.

With `CC(=O)C1=C(c2c[nH]c3ccccc23)C(=O)NC1=O` [Compound 4] as the compound, how does the IC50 read?
Its IC50 is 10.2 µM.

For `CC(=O)C1=C(c2cn(C)c3ccccc23)C(=O)NC1=O` [Compound 17], which IC50 is on record?
The IC50 was 8.2 µM.

With `CC(=O)C1=C(c2ccc(C#N)cc2)C(=O)NC1=O` [Compound 1] as the compound, how does the IC50 read?
The IC50 was 4.6 µM.

With `CC(=O)C1=C(c2cn(C)c3ncccc23)C(=O)NC1=O` [Compound 15] as the compound, how does the IC50 read?
Its IC50 is 6.5 µM.

For `CC(=O)C1=C(c2c[nH]c3ncccc23)C(=O)NC1=O` [Compound 7], which IC50 is on record?
Its IC50 is 8.2 µM.

For `O=C(CBr)C1=C(c2c[nH]c3ccccc23)C(=O)NC1=O` [Compound 16], which IC50 is on record?
Its IC50 is 2.4 µM.

With `Cn1cc(C2=C(C(=O)CBr)C(=O)NC2=O)c2ccccc21` [Compound 18] as the compound, how does the IC50 read?
The IC50 was 2.9 µM.

System: PDE10A
Experiment: not given
Parameters: method as in PMID 21705115
Settings: reference compound; cited from earlier work

Which IC50 does the source give for `COc1ccc(Cc2nccc3cc(OC)c(OC)cc23)cc1OC` [Papaverine] here?
The IC50 was 0.019 µM.

System: Raw 264.7 cells
Experiment: Inhibition of nitrite production in LPS-stimulated murine macrophages (Griess reaction)
Format: cell-based
Settings: inhibitors 10 μM, 1 h pretreatment, LPS 10 μg mL−1, 24 h, versus LPS-treated cells
Source text: Finally, to explore the anti-inflammatory potential of the new allosteric PDE10A inhibitors here described, a cell-based assay was used. We have determined differences in nitrite production of Raw 264.7 cells after they were damaged with bacterial lipopolysaccharide (LPS) and treated with selected inhibitors. First, the effect of the compounds on cell viability was examined at various concentrations showing […] significant cytotoxic effect in the present experiments (data not shown).
Figure 4 Raw 264.7 cells were incubated for 24 h with lipopolysaccharide (LPS; 10 μg mL^−1) in the absence or presence of various Phosphodiesterase (PDE) inhibitors (10 μM), and the production of nitrite was evaluated by the Griess reaction. Cells were pretreated with inhibitors for 1 h before lipopolysaccharide (LPS) stimulation. Values represent the mean ± SD from two independent experiments. *: p < 0.05; **: p < 0.01 versus LPS-treated cells.
The content of nitrite, one of the end products of NO oxidation, was monitored by a procedure based on the diazotidation of nitrite by sulfanilic acid (Griess reaction). […] The absorbance (520 nm) of the mixture was measured on a microplate reader. The concentration of nitrite was calculated with the linear equation derived from the standard curve generated by known concentrations of sodium nitrite.

With `COc1ccc(-c2n/c(=N/Cc3cccnc3)sn2-c2ccccc2)cc1` [Compound 5] as the compound, how does the nitrite production read?
The nitrite production was “significantly decreased”.

With `CC(=O)C1=C(c2c[nH]c3ccccc23)C(=O)NC1=O` [Compound 4] as the compound, how does the nitrite production read?
Its nitrite production is “significantly decreased”.

From publication PMC6151459, “Targeting PDE10A GAF Domain with Small Molecules: A Way for Allosteric Modulation with Anti-Inflammatory Effects” (Molecules : A Journal of Synthetic Chemistry and Natural …, 2017)
